Values quoted from earlier work as cited in patent US6673373B2, “Antifungal formulation and the methods for manufacturing and using the same” (Carlsbad Technology Inc., priority 2001, dated 2004).

Experiments:
[1] = not given; remark: listed apart in the source
[2] = tested on: plasma proteins
[3] = not given; remark: listed apart in the source

Compound | solubility in water | time to reach peak concentration in plasma ([1]; after taken by the patients) | concentration in blood as % of that in plasma ([1]; in vivo) | itraconazole in its original form excreted in feces ([1]; in vivo) | itraconazole in its original form secreted in urine ([1]; in vivo) | plasma half life ([1]; in vivo) | itraconazole metabolites secreted in urine ([1]; within a week after the uptake of the drug) | binding rate with plasma proteins [2] | antifungal activity in vitro [3]
CCC(C)n1ncn(-c2ccc(N3CCN(c4ccc(OC[C@H]5CO[C@](Cn6cncn6)(c6ccc(Cl)cc6Cl)O5)cc4)CC3)cc2)c1=O (mixture of isomers) [itraconazole, (±)-cis-4-[4-[4-[4-[[2-(2,4-dichlorophenyl)-2-(1H-1,2,4-triazol-1-ylmethyl)-1,3-dioxolan-4-yl]methoxy]phenyl]-1-piperazinyl]phenyl]-2,4-dihydro-2-(1-methylpropyl)-3H-1,2,4-triazol-3-one] | less than 1 μg/ml | 3 to 4 h | about 60% | 3-18% | ≤ 0.03% | 24 to 36 h | About 35% | 99.8% | 
hydroxy-itraconazole |  |  |  |  |  |  |  |  | demonstrated in vitro to have antifungal activity
